In article PMC3128435 (Journal of physics. Condensed matter : an Institute of …, 2010):

Target: maltoporin (Escherichia coli, UniProt P02943)
Experiment: single-channel current blockage in planar lipid bilayer
Format: binding
Conditions: 1.0 M NaCl, pH 7, 150 mV, 23 °C

maltoporin, sequence (P02943 26-446): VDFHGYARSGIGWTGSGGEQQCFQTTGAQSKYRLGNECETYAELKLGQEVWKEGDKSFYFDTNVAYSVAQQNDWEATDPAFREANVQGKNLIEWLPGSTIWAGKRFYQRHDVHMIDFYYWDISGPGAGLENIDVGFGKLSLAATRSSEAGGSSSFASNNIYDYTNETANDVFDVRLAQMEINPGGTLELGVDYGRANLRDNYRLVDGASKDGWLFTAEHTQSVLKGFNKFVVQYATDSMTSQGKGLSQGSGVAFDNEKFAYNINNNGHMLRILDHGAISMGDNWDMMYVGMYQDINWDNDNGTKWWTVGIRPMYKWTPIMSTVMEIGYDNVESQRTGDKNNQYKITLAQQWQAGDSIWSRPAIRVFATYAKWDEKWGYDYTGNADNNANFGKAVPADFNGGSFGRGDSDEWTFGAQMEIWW

Row | SMILES | average lifetime of the channel complex [ms] | average lifetime of the channel complex (cis-side addition) [ms]
1 | OC[C@H]1O[C@H](O[C@H]2[C@H](O)[C@@H](O)[C@@H](O[C@H]3[C@H](O)[C@@H](O)[C@@H](O[C@H]4[C@H](O)[C@@H](O)[C@@H](O[C@H]5[C@H](O)[C@@H](O)[C@@H](O[C@H]6[C@H](O)[C@@H](O)[C@@H](O[C@H]7[C@H](O)[C@@H](O)C(O)O[C@@H]7CO)O[C@@H]6CO)O[C@@H]5CO)O[C@@H]4CO)O[C@@H]3CO)O[C@@H]2CO)[C@H](O)[C@@H](O)[C@@H]1O (some centres unmarked) [m7, maltoheptaose] | 2.0 ± 0.3 | –
2 | OC[C@H]1O[C@@H]2O[C@H]3[C@H](O)[C@@H](O)[C@@H](O[C@H]4[C@H](O)[C@@H](O)[C@@H](O[C@H]5[C@H](O)[C@@H](O)[C@@H](O[C@H]6[C@H](O)[C@@H](O)[C@@H](O[C@H]7[C@H](O)[C@@H](O)[C@@H](O[C@H]8[C@H](O)[C@@H](O)[C@@H](O[C@H]1[C@H](O)[C@H]2O)O[C@@H]8CO)O[C@@H]7CO)O[C@@H]6CO)O[C@@H]5CO)O[C@@H]4CO)O[C@@H]3CO [CD, β-cyclodextrin] | – | 7.3 ± 0.5
